# Test results taken from patent US5786330A, “Peptide compounds which are therapeutically active in the cascade of blood coagulation, process for preparing them and pharmaceutical compositions containing them” (Adir et Compagnie, priority 1993, dated 1998).
# *1 amine or outer side, *2 acyl side, *3 side chain or, on linkers, in order; H or OH if unused. Where a SMILES comes first, the peptide text is derived from it. [ ]: non-standard residue; d: D form. Phe(4-PO3H2) = N[C@@H](Cc1ccc(P(=O)(O)O)cc1)C(=O)O; Oic = O=C(O)[C@@H]1C[C@@H]2CCCC[C@@H]2N1; X1 = O=C([C@@H]1C2CCC(CC2)N1[*:1])[*:2]
# Columns and labels:
# human thrombin [1] = biological target: T1, human thrombin (Homo sapiens, UniProt P00734); assay: inhibition of thrombin, fibrinogen as substrate; assay type: biochemical; conditions: 20 C, fibrin measured at 405 nm
# T1 construct: human thrombin (Sigma, specific activity 3230 NIHU/mg); purchased Sigma
# Description: (§1) In order to evaluate in vitro the inhibitory activity of the products of the invention on human thrombin (Sigma, specific activity 3230 NIHU/mg), human fibrinogen (purified or plasmatic) (Fg) or the chromogenic substrate H-D-Phe-Pip-Arg-pNA ([…], S 2238, Kabi) were added to a given quantity of thrombin (0.7 or 2 nM) previously incubated with or without the test inhibitor (20 C, 10 min).
# (§2) In order to evaluate in vitro the selectivity of these products towards various coagulation serine proteases, the same procedure was applied to purified human plasmin (2 nM, Stago), to purified human activated factor X (2 nM, Stago), to kallikrein (2 nM, sigma), to urokinase (2 nM, sigma), to plasminogen tissue activator (t-PA; 2 nM, Stago) and to purified human activated protein C (2 nM, Stago) using, as substrate, various paranitroanilide-containing peptides. The inhibitors, enzymes and substrates are diluted in the same buffer ([…] phosphate buffer pH 7.4, containing 0.12M sodium chloride and 0.05% bovine serum albumin) and then distributed in a polystyrene microplate in a volume of 50 l.
# (§3) The fibrin formed by thrombin or the paranitroanilide liberated by the action of the serin protease is measured spectrophotometrically at 405 nm after reacting for 15 to 30 minutes at 20° C. […] The results are expressed in IC50 value: the concentration in nM which inhibits the enzymatic activity by 50%.
# human thrombin [2] = biological target: T1, human thrombin; assay: inhibition of thrombin, chromogenic substrate H-D-Phe-Pip-Arg-pNA (S 2238); assay type: biochemical; conditions: 20 C, 405 nm
# Description: as §1, §2, §3
# male OFA rats = assay: venous thrombosis induced by ligation of the vena cava inferior (weight of the clot); assay type: in vivo; conditions: rat, clot withdrawn 25 minutes after ligation
# Description: The test animals are anesthetized by administration of sodium pentobarbital (50 mg/kg i.p.). 15 minutes before the ligation, the animals are treated with the test products via the i.v. route. The clot is withdrawn from the vena cava 25 minutes after the ligation, it is weighed after desiccation (24 hours at 60 C.).
# [3] = system: thrombin time (TT), human plasma; assay: thrombin time (TT) in vitro on human plasma; assay type: biochemical; conditions: human plasma low in platelets, citrate
# Description: (§4) In the presence of a standard quantity of thrombin or activated cephalin, a normal plasma coagulates within a defined and constant time called thrombin time (TT) and activated cephalin time (ACT) respectively. The extension of these coagulation times by pharmacological substances reflects an anticoagulant effect.
# (§5) The in vitro effect of the products of the invention was measured on human plasma. Blood was collected by venous puncture in a tube containing citrate. After decantation (1200 g, 10 min), the plasma low in platelets is decanted so as to then carry out the coagulation tests. […] The compound of Example 1 doubles the TT at the concentration of […] and the ACT at the concentration of […].
# [4] = system: activated cephalin time (ACT), human plasma; assay: activated cephalin time (ACT) in vitro on human plasma; assay type: biochemical; conditions: human plasma low in platelets, citrate
# Description: as §4, §5
# [5] = system: thrombin time (TT), OFA rats; assay: thrombin time (TT) ex vivo in OFA rats; conditions: rat, 0.8 mg/kg i.v.
# Description: as §4
# (§6) The effect of the products was tested ex vivo in OFA rats anesthetized with sodium pentobarbital (60 mg/kg i.p.) The carotid artery and the jugular vein are catheterized. After installation of the catheters, 1.5 cm^3 of arterial blood are collected over citrate (0.109M). 30 minutes later, the test product is administered in a volume of 1 ml by i.v. Arterial samples (1.5 cm^3) are then collected at […], 3 min, 5 min, 15 min, 30 min and 60 min. At each collection of sample, 1.5 cm^3 of citrated physiological saline is reinjected into the animal via the carotid.
# [6] = system: activated cephalin time (ACT), OFA rats; assay: activated cephalin time (ACT) ex vivo in OFA rats; conditions: rat, 0.8 mg/kg i.v.
# Description: as §4, §6
# purified human plasmin = biological target: T2, purified human plasmin (Homo sapiens, UniProt P00747); assay: selectivity towards coagulation serine proteases: plasmin; assay type: biochemical; conditions: 2 nM enzyme, paranitroanilide-containing peptide substrate; read-out: IC50 with respect to plasmin
# T2 construct: purified human plasmin (2 nM, Stago); purchased Stago
# Description: as §2, §3
# [7] = biological target: T3, purified human activated factor X (Homo sapiens, UniProt P00742); assay: selectivity towards coagulation serine proteases: activated factor X; assay type: biochemical; conditions: 2 nM enzyme, paranitroanilide-containing peptide substrate; read-out: IC50 with respect to activated factor X
# T3 construct: purchased Stago
# Description: as §2, §3
# kallikrein = assay: selectivity towards coagulation serine proteases: kallikrein; assay type: biochemical; conditions: 2 nM enzyme, paranitroanilide-containing peptide substrate; read-out: IC50 with respect to kallikrein
# Description: as §2, §3
# urokinase = biological target: T4, urokinase (Homo sapiens, UniProt P00749); assay: selectivity towards coagulation serine proteases: urokinase; assay type: biochemical; conditions: 2 nM enzyme, paranitroanilide-containing peptide substrate; read-out: IC50 with respect to urokinase
# T4 construct: purchased sigma
# Description: as §2, §3
# [8] = biological target: T5, plasminogen tissue activator (t-PA) (Homo sapiens, UniProt P00750); assay: selectivity towards coagulation serine proteases: t-PA; assay type: biochemical; conditions: 2 nM enzyme, paranitroanilide-containing peptide substrate; read-out: IC50 with respect to t-PA
# T5 construct: purchased Stago
# Description: as §2, §3
# [9] = biological target: T6, purified human activated protein C (Homo sapiens, UniProt P04070); assay: selectivity towards coagulation serine proteases: activated protein C; assay type: biochemical; conditions: 2 nM enzyme, paranitroanilide-containing peptide substrate; read-out: IC50 with respect to activated protein C
# T6 construct: purchased Stago
# Description: as §2, §3
# T6 sequence (P04070 212-450 limits assumed): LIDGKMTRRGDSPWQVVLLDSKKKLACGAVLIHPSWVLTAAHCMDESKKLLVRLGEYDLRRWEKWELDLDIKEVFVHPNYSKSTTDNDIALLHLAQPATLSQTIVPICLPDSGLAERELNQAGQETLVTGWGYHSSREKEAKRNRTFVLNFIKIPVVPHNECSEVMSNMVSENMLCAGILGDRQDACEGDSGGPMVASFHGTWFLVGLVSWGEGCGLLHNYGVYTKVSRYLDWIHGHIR
# T6 sequence (P04070 43-197 limits assumed): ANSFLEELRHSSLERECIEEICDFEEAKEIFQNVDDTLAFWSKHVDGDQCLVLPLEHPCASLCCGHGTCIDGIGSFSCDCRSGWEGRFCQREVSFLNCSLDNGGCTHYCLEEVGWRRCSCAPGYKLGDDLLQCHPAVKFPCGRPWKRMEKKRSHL
# T3 sequence (P00742 235-488 limits assumed): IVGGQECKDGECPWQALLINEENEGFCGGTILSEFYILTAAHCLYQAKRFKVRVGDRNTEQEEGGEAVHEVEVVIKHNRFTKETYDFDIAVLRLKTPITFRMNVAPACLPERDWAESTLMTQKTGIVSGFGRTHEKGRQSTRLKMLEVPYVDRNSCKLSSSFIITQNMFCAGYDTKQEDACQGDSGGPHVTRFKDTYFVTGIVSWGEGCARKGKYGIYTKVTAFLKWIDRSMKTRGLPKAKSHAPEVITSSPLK
# T3 sequence (P00742 41-179 limits assumed): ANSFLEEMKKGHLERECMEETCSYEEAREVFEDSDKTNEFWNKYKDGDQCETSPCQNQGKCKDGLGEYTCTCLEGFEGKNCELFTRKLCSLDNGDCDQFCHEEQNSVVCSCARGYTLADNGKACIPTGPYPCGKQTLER
# T5 sequence (P00750 23-562 limits assumed, species assumed): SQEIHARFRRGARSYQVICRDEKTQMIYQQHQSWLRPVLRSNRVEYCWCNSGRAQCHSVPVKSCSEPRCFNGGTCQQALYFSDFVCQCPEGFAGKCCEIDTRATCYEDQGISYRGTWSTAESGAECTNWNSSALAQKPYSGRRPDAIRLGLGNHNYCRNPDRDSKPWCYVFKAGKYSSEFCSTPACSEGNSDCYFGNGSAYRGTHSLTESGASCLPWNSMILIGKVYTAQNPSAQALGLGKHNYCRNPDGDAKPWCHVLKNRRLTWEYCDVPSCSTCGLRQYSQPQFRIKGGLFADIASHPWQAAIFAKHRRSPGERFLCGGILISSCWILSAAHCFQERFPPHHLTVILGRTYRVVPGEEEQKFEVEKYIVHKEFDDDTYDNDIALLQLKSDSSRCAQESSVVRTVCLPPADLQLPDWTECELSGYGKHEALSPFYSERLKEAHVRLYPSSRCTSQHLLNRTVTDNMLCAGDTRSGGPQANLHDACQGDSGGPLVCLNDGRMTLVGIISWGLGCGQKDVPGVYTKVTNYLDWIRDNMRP
# T2 sequence (P00747 581-810 limits assumed): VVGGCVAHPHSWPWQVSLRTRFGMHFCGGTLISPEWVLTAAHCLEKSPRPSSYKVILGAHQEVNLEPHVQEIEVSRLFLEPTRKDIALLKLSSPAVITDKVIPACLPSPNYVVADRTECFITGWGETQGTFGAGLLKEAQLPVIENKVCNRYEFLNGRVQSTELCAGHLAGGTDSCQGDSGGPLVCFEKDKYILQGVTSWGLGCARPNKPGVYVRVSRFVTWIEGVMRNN
# T2 sequence (P00747 97-580 limits assumed): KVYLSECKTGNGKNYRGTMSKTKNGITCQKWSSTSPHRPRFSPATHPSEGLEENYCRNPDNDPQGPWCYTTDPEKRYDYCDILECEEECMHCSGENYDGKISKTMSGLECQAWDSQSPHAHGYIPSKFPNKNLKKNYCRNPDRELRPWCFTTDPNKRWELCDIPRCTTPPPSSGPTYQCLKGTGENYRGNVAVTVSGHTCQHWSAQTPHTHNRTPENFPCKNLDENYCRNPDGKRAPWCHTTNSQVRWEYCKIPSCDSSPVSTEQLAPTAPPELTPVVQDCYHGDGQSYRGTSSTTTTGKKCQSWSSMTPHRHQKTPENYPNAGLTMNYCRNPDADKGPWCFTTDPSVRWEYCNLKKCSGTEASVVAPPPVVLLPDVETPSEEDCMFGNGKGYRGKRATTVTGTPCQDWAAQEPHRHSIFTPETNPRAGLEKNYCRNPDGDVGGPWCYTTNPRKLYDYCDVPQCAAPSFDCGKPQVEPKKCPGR
compound,measurement,setting,value
"CC[C@H](C)[C@H](NC(=O)[C@@H]1C2CCC(CC2)N1C(=O)[C@H](CCC(=O)O)NC(=O)[C@H](Cc1ccccc1)NC(=O)[C@H](CC(=O)O)NC(=O)CNC(=O)[C@H](CC(N)=O)NC(=O)CNC(=O)CNC(=O)CNC(=O)CNC(=O)[C@@H]1CCCN1C(=O)[C@H](CCCNC(=N)N)NC(=O)[C@@H]1CCCN1C(=O)[C@H](N)Cc1ccccc1)C(=O)N1CCC[C@H]1C(=O)N[C@@H](CCC(=O)O)C(=O)N[C@@H](CCC(=O)O)C(=O)N[C@@H](Cc1ccc(P(=O)(O)O)cc1)C(=O)N[C@@H](CC(C)C)C(=O)N[C@H](CCC(=O)O)C(=O)O [Example 1, H-phe-Pro-Arg-Pro-(Gly)4 -Asn-Gly-Asp-Phe-Glu-Abo-Ile-Pro-(Glu)2 -Phe(pPO3 H2)-Leu-glu-OH] (H-[dF]PRPGGGGNGDFE[X1]IPEE[Phe(4-PO3H2)]L[dE]-OH)",IC50,human thrombin [1],0.0061 µM
same,IC50,human thrombin [2],0.018 µM
CC[C@H](C)[C@H](NC(=O)[C@H](CCC(=O)O)NC(=O)[C@H](CCC(=O)O)NC(=O)[C@H](Cc1ccccc1)NC(=O)[C@H](CC(=O)O)NC(=O)CNC(=O)[C@H](CC(N)=O)NC(=O)CNC(=O)CNC(=O)CNC(=O)CNC(=O)[C@@H]1CCCN1C(=O)[C@H](CCCNC(=N)N)NC(=O)[C@@H]1CCCN1C(=O)[C@H](N)Cc1ccccc1)C(=O)N1CCC[C@H]1C(=O)N[C@@H](CCC(=O)O)C(=O)N[C@@H](CCC(=O)O)C(=O)N[C@@H](Cc1ccc(O)cc1)C(=O)N[C@@H](CC(C)C)C(=O)O [hirulog-1],Decrease in the weight of the clot in %,male OFA rats; 0.1 mg/kg i.v. 15 minutes before ligation,-0%
same,Decrease in the weight of the clot in %,male OFA rats; 1 mg/kg i.v. 15 minutes before ligation,-46%
same,concentration that doubles the TT,[3],0.07 M
same,concentration that doubles the ACT,[4],0.2 M
same,Increase in the TT (multiplicative factor),[5]; 1.5 min,13
same,Increase in the TT (multiplicative factor),[5]; 3 min,11
same,Increase in the TT (multiplicative factor),[5]; 5 min,9.8
same,Increase in the TT (multiplicative factor),[5]; 15 min,6.6
same,Increase in the TT (multiplicative factor),[5]; 30 min,4.2
same,Increase in the TT (multiplicative factor),[5]; 60 min,2.2
same,Increase in the ACT (multiplicative factor),[6]; 1.5 min,3.8
same,Increase in the ACT (multiplicative factor),[6]; 3 min,3.2
same,Increase in the ACT (multiplicative factor),[6]; 5 min,2.6
same,Increase in the ACT (multiplicative factor),[6]; 15 min,2.1
same,Increase in the ACT (multiplicative factor),[6]; 30 min,1.6
same,Increase in the ACT (multiplicative factor),[6]; 60 min,1.3
same,IC50,purified human plasmin,> 33 µM
same,IC50,[7],> 33 µM
same,IC50,kallikrein,> 33 µM
same,IC50,urokinase,> 33 µM
same,IC50,[8],> 33 µM
same,IC50,[9],> 33 µM
"CC[C@H](C)[C@H](NC(=O)[C@@H]1C2CCC(CC2)N1C(=O)[C@H](CCC(=O)O)NC(=O)[C@H](Cc1ccccc1)NC(=O)[C@H](CC(=O)O)NC(=O)CNC(=O)[C@H](CC(N)=O)NC(=O)CNC(=O)CNC(=O)CNC(=O)CNC(=O)[C@@H]1CCCN1C(=O)[C@H](CCCNC(=N)N)NC(=O)[C@@H]1C[C@@H]2CCCC[C@@H]2N1C(=O)[C@H](N)Cc1ccccc1)C(=O)N1CCC[C@H]1C(=O)N[C@@H](CCC(=O)O)C(=O)N[C@@H](CCC(=O)O)C(=O)N[C@@H](Cc1ccc(P(=O)(O)O)cc1)C(=O)N[C@@H](CC(C)C)C(=O)N[C@H](CCC(=O)O)C(=O)O [Example 2, H-phe-Oic-Arg-Pro-(Gly)4 -Asn-Gly-Asp-Phe-Glu-Abo-Ile-Pro-(Glu)2 -Phe(pPO3 H2)-Leu-glu-OH] (H-[dF][Oic]RPGGGGNGDFE[X1]IPEE[Phe(4-PO3H2)]L[dE]-OH)",IC50,human thrombin [1],0.004 µM
same,IC50,human thrombin [2],0.015 µM
